Where a name gives a salt, the structure may show the parent alone.
Legend:
[1] = tested on: porcine aortic smooth muscle cells; test: Porcine smooth muscle cell antiproliferation, serum stimulation (3H thymidine incorporation); type: cell-based; conditions: serum-stimulated
Method: (§2) The ability of the compounds of the present invention to inhibit smooth muscle cell proliferation was established using isolated porcine aortic smooth muscle cells in a modification of the procedure of Castellot et al. J. Biol. Chem 257(19) 11256 (1982), as follows:
(§3) Fresh porcine aortas, scrupulously cleansed of fatty tissue, are rinsed in sterile phosphate-buffered saline with 2% antibiotic-antimycotic (100×) liquid (10,000 units of penicillin (base), 10,000 μg of streptomycin (base), and 25 μg of amphotericin B/mL utilizing penicillin G (sodium salt), streptomycin sulfate, and amphotericin B as Fungizone® in 0.85% saline, available from Gibco Laboratories, Grand Island Biological Co., Grand Island, N.Y.). The tissue is then digested in 10-15 mL of an enzyme solution containing collagenase type I, 165 U/mL; elastase type III, 15 U/mL; BSA, 2 mg/mL; and soybean trypsin inhibitor, 0.375 mg/mL, followed by incubation at 37° C. under 5% CO2 atmosphere for 10 to 15 minutes. After this treatment, the outer surface adventitia is removed by peeling with a forceps. The aorta is then longitudinally cut and laid open and the endothelial layer is removed by scraping.
(§4) The medial layer of cells is rinsed in the enzyme solution, and placed in a new 100 mm dish with 10 mL of enzyme solution. The medial layer of cells is minced using a fine pair of scissors and digested for 2-3 hours at 37° C. in 30 mL of fresh enzyme solution. After digestion, the medial tissue is homogenized using a sterile Pasteur pipette with a fire polished tip or an Eppendorf pipetter with a 200-1000 μL sterile pipette tip. The suspension is then centrifuged for 10 minutes at 8000 rpm and the pellet is suspended in 4-6 mL of fresh enzyme solution and plated onto 4-6 100 mm flasks with vented caps. The cells are then allowed to grow to confluence and split using 0.25% trypsin. The cells are evaluated for purity and overall quality using antibody to SMC actin.
(§5) The cells are assayed in early passage (generally passage 3-7) at sub-confluent conditions. Cultures are grown in 16 mm (24 well) multi-well culture dishes in media 199 supplemented with 10% fetal bovine serum and 2% antibiotic/antimycotic. At subconfluence, the cells are placed in a defined serum free, lymphocyte medium (AIM-V; Gibco) for 24-48 hours prior to initiating the experimental protocoL
(§6) The standard test procedure is initiated by addition of the test compound, ^3 H thymidine and serum or a specific growth factor to the serum deprived synchronized cells. Growth factor and serum stimulations are optimized for each cell type. The test compounds are added to each well at 50 fold dilution (20 μL/well) and the plates are incubated for 24-36 hours at 37° C. in 5% CO2 atmosphere. Test compounds are dissolved in 50% ethanol and assayed at 1, 10, and 100 μM. As a control, RG 50872 (Bilder, G. A.; et al., Am. J. Cell Physiol., 1991; 260: C721) is routinely assayed under the conditions of each cell preparation at a concentration of 5 μM.
(§7) At the completion of the experiment, the plates are placed on ice, washed three times with ice cold PBS and incubated in ice cold 10% trichloroacetic acid (TCA) for 30 minutes to remove acid soluble proteins. Each solution is transferred to a scintillation vial containing 0.4N HCl (500 μL/vial to neutralize NaOH) and each well is rinsed two times with water (500 μL) for a total volume of 2 mL/vial.
(§8) Data is quantitated by subjecting the vials to a scintillation counter, in triplicate, for both control and experimental samples. […] Experimental data is obtained from cells maximally stimulated with growth factor or serum and treated with a test compound. (The platelet-derived growth factor used in the assay was human recombinant PDGF-AB purchased from Upstate Biotechnology Inc., Lake Placid, N.Y.). Data is expressed as a percent of control from which IC50 s are determined.

[2] = tested on: porcine aortic smooth muscle cells; test: Porcine smooth muscle cell antiproliferation, PDGF stimulation (3H thymidine incorporation); type: cell-based; conditions: PDGF-stimulated (human recombinant PDGF-AB)
Method: as §2, §3, §4, §5, §6, §7, §8

[3] = tested on: porcine smooth muscle cells; test: Cytotoxicity, modified MTT assay, % viable cells; type: cell-based; set-up: dose or concentration left out as unconfirmed; conditions: serum-free medium, 24 hours, 37° C.
Method: (§1) To distinguish cytotoxicity from the ability of a compound to prevent proliferation, the test compounds were examined using a commercial modification of the MTT assay. Briefly, cells were grown in 24 well plates to 70-80% confluency. The cells were serum deprived for 24-48 hours prior to initiation of the experimental protocol. To insure that the MTT assay monitored toxicity rather than proliferation, the cells were incubated with […] test compound in fresh medium without serum for 24 hours at 37° C. in a humidified CO2 incubator. Upon completion of the compound treatment, MTT indicator dye was added for 4 hours at 37° C. Cells were then solubilized and aliquots from each well were transferred to a 96-well plate for analysis. Absorbance at 570 nm wavelength with a reference wavelength of 630 nm was recorded using an ELISA plate reader.

[4] = Cytotoxicity, modified MTT assay, % viable cells; type: cell-based, porcine; set-up: dose or concentration left out as unconfirmed; conditions: pig, smooth muscle cells, serum-free medium, 37° C.
Method: as §1

| Compound | inhibition at 20 µM ([1]; Sus scrofa, 20 μM) [%] | IC50 ([2]; Sus scrofa) [µM] | viability at 24 h [4] [%] | IC50 ([1]; Sus scrofa) [µM] | further results |
| --- | --- | --- | --- | --- | --- |
| 4-[5-(Hydroxy-(phenyl)-methyl)-2-propyl -benzoimidazol-1-ylmethyl]-benzoic acid [Example 6] |  |  |  |  | Porcine Smooth Muscle Cell Antiproliferation, Serum, % Inhibition at 20 μM ([1]; 20 μM): 45.9%; IC50 [2]: 11.2 µM; Cytotoxicity, % Viable Cells [3]: 85.5% |
| CCCc1nc2cc(C(=O)c3ccccc3)ccc2[nH]1 [Example 1, Phenyl-(2-propyl-1H-benzoimidazol-5-yl)-methanone] | 39.4 | 12.9 | 80 |  |  |
| CCCc1nc2cc(C(=O)c3ccccc3)ccc2n1Cc1ccc(C(=O)OCC)cc1 [Example 2, 4-(5-Benzoyl-2-propyl-benzoimidazol-1-ylmethyl) -benzoic acid ethyl ester] |  | 1.17 | 100 | 1.04 |  |
| CCCc1nc2ccc(C(=O)c3ccccc3)cc2n1Cc1ccc(C(=O)OCC)cc1 [Example 3, 4-(6-Benzoyl-2-propyl-benzoimidazol-1-ylmethyl) -benzoic acid ethyl ester] |  | 1.23 | 100 | 1.58 |  |
| CCCc1nc2ccc(C(=O)c3ccccc3)cc2n1Cc1ccc(C(=O)O)cc1 [Example 4, 4-(6-Benzoyl-2-propyl-benzoimidazol-1-ylmethyl) benzoic acid] | 61.8 |  | 100 |  | Porcine Smooth Muscle Cell Antiproliferation, PDGF, % Inhibition (concentration not given) ([2]; concentration not given): 0% |
| CCCc1nc2cc(C(=O)c3ccccc3)ccc2n1Cc1ccc(C(=O)O)cc1 [Example 5, 4-(5-Benzoyl-2-propyl-benzoimidazol-1-ylmethyl)-benzoic acid] | 41 | 15.9 | 78 |  |  |
| CCCc1nc2cc(C(O)c3ccccc3)ccc2n1Cc1ccc(C(=O)O)cc1 (stereo not drawn) [Example 7, 4-[5-(Hydroxy-(phenyl)-methyl)-2-propyl-benzoimidazol-1-ylmethyl]-benzoic acid hydrochloride] |  | 17.6 | 85 |  | inhibition at 10 µM ([1]; Sus scrofa, 10 μM): 36% |
| CCCc1nc2cc(C(=O)c3ccccc3)ccc2n1Cc1ccc(Cl)c(Cl)c1 [Example 8, [1-(3,4-Dichloro-benzyl)-2-propyl-1H-benzoimidazol-5-yl]-phenyl-methanone] | 90 | 0.096 to 0.465 | 100 |  |  |
| COc1cc(-c2nc3cc(C(=O)c4ccccc4)ccc3[nH]2)ccc1O [Example 9, [2-(4-Hydroxy-3-methoxy-phenyl)1H-benzoimidazol-5-yl]-phenyl-methanone] |  | 3.74 to 4.14 | 100 | 8.03 to 11.4 |  |
| CCCCCCOc1ccc(-c2nc3cc(C(=O)c4ccccc4)ccc3[nH]2)cc1OC [Example 10, [2-(4-Hexyloxy-3-methoxy-phenyl)-1H benzoimidazol-5-yl]phenyl-methanone] |  | 0.762 | 100 | 13.5 |  |
| O=C(c1ccccc1)c1ccc2[nH]c(-c3ccc(OC(F)(F)F)cc3)nc2c1 [Example 11, Phenyl-[2-(4-trifluoromethoxy-phenyl)-1H -benzoimidazol-5-yl]methanone] |  | 7.7 | 100 | 1.82 |  |
| COc1ccc(Cc2nc3cc(C(=O)c4ccccc4)ccc3[nH]2)cc1OC [Example 12, [2-(3,4-Dimethoxybenzyl)-1H-benzoimidazol-5-yl]-phenyl-methanone] |  | 0.081 to 0.14 | 100 | 7.74 |  |
